# Reference: ChEMBL document CHEMBL5143695, “Benzobis(imidazole) derivatives as STAT3 signal inhibitors with antitumor activity” (Bioorg Med Chem, 2022)
# pIC50: −log10 of the molar value. Activity calls are given as the source filed them. The rule behind the calls is not given here.
# Columns and labels:
# [1] = system: HepG2; experiment: Induction of apoptosis in human HepG2 cells assessed as necrotic cells at 5 uM incubated for 48 hrs by Annexin V/PI staining based flow cytometry method (reference value: 0.57%); type: functional
# [2] = system: HepG2; experiment: Induction of apoptosis in human HepG2 cells assessed as viable cells at 5 uM incubated for 48 hrs by Annexin V/PI staining based flow cytometry method (reference value: 92.5%); type: functional; conditions: read-out: Activity
# [3] = Cytotoxicity against HEK-Blue IL-6 cells; type: toxicity, cell-based; conditions: human
# [4] = system: HepG2; experiment: Antitumor activity against human HepG2 cells assessed as reduction in cell viability incubated for 72 hrs by MTT assay; type: functional, cell-based; conditions: HepG2, 72 h
# [5] = system: ECa-109 cell line; experiment: Antitumor activity against human EC109 cells assessed as reduction in cell viability incubated for 72 hrs by MTT assay; type: functional, cell-based; conditions: ECa-109, 72 h
# [6] = target: Signal transducer and activator of transcription 3 (Homo sapiens) (UniProt P40763); experiment: Inhibition of STAT3 phosphorylation at Y705 residue in human HepG2 cells measured after 16 hrs by Western blotting analysis; type: cell-based; conditions: dose 2.5-20 µM, DDE = dose-dependent effect
# [7] = target: Signal transducer and activator of transcription 3 (Homo sapiens) (UniProt P40763); experiment: Binding affinity to STAT3 (unknown origin) expressed in Escherichia coli BL21 (DE3) assessed as thermal stability by measuring STAT3 accumulation at 55 to 80 degree C at 100 uM incubated for 30 mins by thermal shift assay
# [8] = target: Signal transducer and activator of transcription 3 (Homo sapiens) (UniProt P40763); experiment: Inhibition of STAT3 nuclear translocation in human HepG2 cells assessed as decrease in nuclear STAT3 level at 5 to 10 microM incubated overnight by immunofluorescence analysis; type: cell-based; conditions: dose 5-10 µM
# [9] = target: Signal transducer and activator of transcription 3 (Homo sapiens) (UniProt P40763); experiment: Inhibition of STAT3 dimerization in human HepG2 cells assessed as increase in STAT3 monomer expression at 5 to 10 uM incubated for 24 hrs by DSS crosslink assay; type: cell-based; conditions: dose 5-10 µM
# [10] = target: Signal transducer and activator of transcription 3 (Homo sapiens) (UniProt P40763); experiment: Inhibition of IL-6 induced STAT3 phosphorylation at Tyr705 residue in human HepG2 cells preincubated for 16 hrs followed by IL-6 stimulation for 30 mins by Western blot analysis; type: cell-based; conditions: dose 2.5-20 µM, DDE = dose-dependent effect
# [11] = system: HepG2; experiment: Induction of apoptosis in human HepG2 cells assessed as early apoptotic cells at 5 uM incubated for 48 hrs by Annexin V/PI staining based flow cytometry method (reference value: 3.31%); type: functional
# [12] = system: HepG2; experiment: Induction of apoptosis in human HepG2 cells assessed as viable cells at 10 uM incubated for 48 hrs by Annexin V/PI staining based flow cytometry method (reference value: 92.5%); type: functional; conditions: read-out: Activity
# [13] = system: HepG2; experiment: Induction of apoptosis in human HepG2 cells assessed as early apoptotic cells at 10 uM incubated for 48 hrs by Annexin V/PI staining based flow cytometry method (reference value: 3.31%); type: functional
# [14] = system: HepG2; experiment: Induction of apoptosis in human HepG2 cells assessed as late apoptotic cells at 10 uM incubated for 48 hrs by Annexin V/PI staining based flow cytometry method (reference value: 3.64%); type: functional
# [15] = system: HepG2; experiment: Induction of apoptosis in human HepG2 cells assessed as viable cells at 20 uM incubated for 48 hrs by Annexin V/PI staining based flow cytometry method (reference value: 92.5%); type: functional; conditions: read-out: Activity
# [16] = system: HepG2; experiment: Induction of apoptosis in human HepG2 cells assessed as necrotic cells at 20 uM incubated for 48 hrs by Annexin V/PI staining based flow cytometry method (reference value: 0.57%); type: functional
# [17] = system: ECa-109 cell line; experiment: Induction of apoptosis in human EC109 cells assessed as early apoptotic cells at 5 uM incubated for 48 hrs by Annexin V/PI staining based flow cytometry method (reference value: 1.36%); type: functional
# [18] = system: ECa-109 cell line; experiment: Induction of apoptosis in human EC109 cells assessed as late apoptotic cells at 5 uM incubated for 48 hrs by Annexin V/PI staining based flow cytometry method (reference value: 6.17%); type: functional
# [19] = system: ECa-109 cell line; experiment: Induction of apoptosis in human EC109 cells assessed as early apoptotic cells at 10 uM incubated for 48 hrs by Annexin V/PI staining based flow cytometry method (reference value: 1.36%); type: functional
# [20] = system: ECa-109 cell line; experiment: Induction of apoptosis in human EC109 cells assessed as necrotic cells at 10 uM incubated for 48 hrs by Annexin V/PI staining based flow cytometry method (reference value: 0.73%); type: functional
# [21] = system: ECa-109 cell line; experiment: Induction of apoptosis in human EC109 cells assessed as viable cells at 20 uM incubated for 48 hrs by Annexin V/PI staining based flow cytometry method (reference value: 91.7%); type: functional; conditions: read-out: Activity
# [22] = system: ECa-109 cell line; experiment: Induction of apoptosis in human EC109 cells assessed as early apoptotic cells at 20 uM incubated for 48 hrs by Annexin V/PI staining based flow cytometry method (reference value: 1.36%); type: functional
# [23] = system: ECa-109 cell line; experiment: Induction of apoptosis in human EC109 cells assessed as late apoptotic cells at 20 uM incubated for 48 hrs by Annexin V/PI staining based flow cytometry method (reference value: 6.17%); type: functional
# [24] = system: HepG2; experiment: Induction of apoptosis in human HepG2 cells assessed as downregulation of MCL-1 protein expression by Western blotting analysis; type: functional, cell-based; conditions: dose 2.5-20 µM, DDE = dose-dependent effect
# [25] = system: ECa-109 cell line; experiment: Induction of apoptosis in human EC109 cells assessed as downregulation of MCL-1 protein expression by Western blotting analysis; type: functional, cell-based; conditions: dose 2.5-20 µM, DDE = dose-dependent effect
# [26] = system: HepG2; experiment: Induction of apoptosis in human HepG2 cells assessed as downregulation of cyclin D1 protein expression by Western blotting analysis; type: functional, cell-based; conditions: dose 2.5-20 µM, DDE = dose-dependent effect
# [27] = system: HepG2; experiment: Induction of cell cycle arrest in human HepG2 cells assessed as accumulation of cells at G0/G1 phase incubated for 24 hrs by flow cytometric analysis (reference value: 66.65%); type: functional
# [28] = system: ECa-109 cell line; experiment: Induction of cell cycle arrest in human EC109 cells assessed as accumulation of cells at G0/G1 phase incubated for 24 hrs by flow cytometric analysis (reference value: 49.86%); type: functional
# [29] = system: ECa-109 cell line; experiment: Induction of cell cycle arrest in human EC109 cells assessed as decrease in cells at S phase incubated for 24 hrs by flow cytometric analysis (reference value: 36.08%); type: functional; parameters: scale not given: the % may be the effect or the level left
# [30] = system: ECa-109 cell line; experiment: Induction of cell cycle arrest in human EC109 cells assessed as downregulation of cyclin D1 protein expression by Western blotting analysis; type: functional, cell-based; conditions: dose 2.5-20 µM, DDE = dose-dependent effect
# [31] = system: HepG2; experiment: Inhibition of cell migration in human HepG2 cells incubated for 48 hrs by microscopic analysis based wound healing assay; type: functional; conditions: dose 5-10 µM, DDE = dose-dependent effect
# [32] = system: HepG2; experiment: Antitumor activity against human HepG2 cells xenografted in BALB/c athymic nude mouse assessed as tumor growth inhibition at 20 mg/kg, ip administered daily for 24 days relative to control; type: functional; conditions: HepG2, 576 h, time 24 day, read-out: TGI
# [33] = Toxicity in BALB/c athymic nude mouse xenografted with human HepG2 cells assessed as effect on body weight at 20 to 40 mg/kg, ip administered daily for 24 days; type: organism-based; conditions: in vivo, 576 h, dose 20-40 mg/kg, time 24 day
# [34] = system: HepG2; experiment: Antitumor activity against human HepG2 cells xenografted in BALB/c athymic nude mouse assessed as decrease in Ki67 expression level at 20 to 40 mg/kg, ip administered daily for 24 days; type: functional, organism-based; conditions: dose 20-40 mg/kg, time 24.0 day
# [35] = system: HepG2; experiment: Antitumor activity against human HepG2 cells xenografted in BALB/c athymic nude mouse assessed as decrease in STAT3 phosphorylation at Y705 residues at 20 to 40 mg/kg, ip administered daily for 24 days; type: functional, organism-based; conditions: dose 20-40 mg/kg, time 24.0 day
# Signal transducer and activator of transcription 3 (Homo sapiens), sequence (P40763 whole entry): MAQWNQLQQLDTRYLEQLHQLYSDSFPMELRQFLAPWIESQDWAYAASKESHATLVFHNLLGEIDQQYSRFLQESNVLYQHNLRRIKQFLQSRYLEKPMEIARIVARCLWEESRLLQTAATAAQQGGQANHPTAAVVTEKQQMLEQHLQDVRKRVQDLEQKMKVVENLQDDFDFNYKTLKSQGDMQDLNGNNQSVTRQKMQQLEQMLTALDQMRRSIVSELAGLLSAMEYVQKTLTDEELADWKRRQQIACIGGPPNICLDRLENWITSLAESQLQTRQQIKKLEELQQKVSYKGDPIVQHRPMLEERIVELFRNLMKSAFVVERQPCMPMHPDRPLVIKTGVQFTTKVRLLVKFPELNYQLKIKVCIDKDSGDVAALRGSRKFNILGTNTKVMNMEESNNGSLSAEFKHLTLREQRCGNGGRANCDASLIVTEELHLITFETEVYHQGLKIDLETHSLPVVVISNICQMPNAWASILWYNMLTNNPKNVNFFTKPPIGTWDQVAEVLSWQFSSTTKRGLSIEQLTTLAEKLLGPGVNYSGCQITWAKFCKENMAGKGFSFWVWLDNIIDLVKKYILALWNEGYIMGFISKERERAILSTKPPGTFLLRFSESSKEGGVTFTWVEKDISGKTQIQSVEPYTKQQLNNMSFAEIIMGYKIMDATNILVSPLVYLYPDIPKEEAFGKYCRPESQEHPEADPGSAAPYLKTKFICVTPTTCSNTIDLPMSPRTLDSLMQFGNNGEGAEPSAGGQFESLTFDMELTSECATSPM
smiles,measurement,setting,value
CCCn1c(-c2cccc(OC)c2)nc2cc3nc(-c4cccc(OC)c4)n(CCC)c3cc21,Activity,[1],1.54%
same,viability at 5 µM,[2],76.6%
same,pIC50,[3],< 5.00
same,pIC50,[4],5.37
same,pIC50,[5],5.44
same,inhibition,[6],Dde
same,Activity,[7],Active
same,inhibition,[8],Active
same,inhibition,[9],Active
same,inhibition,[10],Dde
same,Activity,[11],8.44%
same,viability at 10 µM,[12],39.5%
same,Activity,[13],19.7%
same,Activity,[14],39.4%
same,viability at 20 µM,[15],17.3%
same,Activity,[16],0.91%
same,Activity,[17],2.27%
same,Activity,[18],11%
same,Activity,[19],11.2%
same,Activity,[20],1.1%
same,viability at 20 µM,[21],46.8%
same,Activity,[22],18.2%
same,Activity,[23],31.4%
same,Activity,[24],Dde
same,Activity,[25],Dde
same,Activity,[26],Dde
same,Activity,[27],74.51%
same,Activity,[28],58.73%
same,Activity,[29],28.53%
same,Activity,[30],Dde
same,inhibition,[31],Dde
same,inhibition in vivo at 20 mg/kg,[32],42.5%
same,Activity,[33],Non-Toxic
same,Activity,[34],Active
same,Activity,[35],Active
